From patent US20020049223A1, “Quinoline and naphthyridine carboxylic acid antibacterials” (priority 1999, published 2002)

What was measured:
Assay in all cases: Assay B: in vitro antibacterial activity, broth microdilution MIC (NCCLS)
Type in all cases: cell-based
[1] = system: Enterococcus faecalis PIU 1967; conditions: Table 2, Assay B, cation-adjusted Mueller Hinton broth, 35° C., 16 to 20 hr; code B = Enterococcus faecalis PIU 1967; unit assumed
Description: (§1) Assay B. Determination of Biological Activity In Vitro Assay of Antibacterial Activity
(§2) Representative compounds of the invention were assayed in vitro for antibacterial activity. The susceptibilities of aerobic, nonfastidious species were determined visually by broth microdilution as described by the National Committee for Clinical Laboratory Standards (NCCLS) (National Committee for Clinical Laboratory Standards. 1997. Methods for dilution antimicrobial susceptibility tests for bacteria that grow aerobically. Approved standard M7-A4. National Committee for Clinical Laboratory Standards. Wayne, Pa.). In brief, serial two-fold dilutions of test compounds were made in cation-adjusted Mueller Hinton broth at two-times the final concentration. Inocula were prepared from overnight cultures of test strains. Tests were inoculated with a suspension of bacteria in Mueller Hinton broth to achieve a final density of approximately 5×10^5 CFU/mL. Tests were incubated at 35° C. in ambient air for 16 to 20 hr. Minimum Inhibitory Concentrations (MICs) were determined as the lowest drug concentration completely inhibiting growth. Ciprofloxacin was included as a control. For testing S. pneumoniae, the cation-adjusted Mueller Hinton broth was supplemented with 3% lysed horse blood and the incubation period was extended to 20 to 24 hr. For testing H. influenzae, the cation-adjusted Mueller Hinton broth was supplemented with 5 g/L yeast extract, […] and 15 mg/L NAD and incubation was extended to 20 to 24 hr..

Escherichia coli JUHL = conditions: Table 2, Assay B, cation-adjusted Mueller Hinton broth, 35° C., 16 to 20 hr; code D = Escherichia coli JUHL; unit assumed
Description: as §1, §2

[2] = system: Haemophilus influenzae DILL AMP R; conditions: Table 2, Assay B, Mueller Hinton broth with yeast extract, hematin and NAD, 20 to 24 hr; code E = Haemophilus influenzae DILL AMP R; unit assumed
Description: as §1, §2

[3] = system: Staphylococcus aureus ATCC 6538P; conditions: Table 2, Assay B, cation-adjusted Mueller Hinton broth, 35° C., 16 to 20 hr; code A = Staphylococcus aureus ATCC 6538P; unit assumed
Description: as §1, §2

[4] = system: Streptococcus pneumoniae ATCC 6303; conditions: Table 2, Assay B, Mueller Hinton broth with 3% lysed horse blood, 20 to 24 hr; code F = Streptococcus pneumoniae ATCC 6303; unit assumed
Description: as §1, §2

SMILES	Antibacterial Activity (MIC's), B [1]	Antibacterial Activity (MIC's), D (Escherichia coli JUHL)	Antibacterial Activity (MIC's), E [2]	Antibacterial Activity (MIC's), A [3]	Antibacterial Activity (MIC's), F [4]
COc1c(-c2cc3c(s2)CCCC3CN2CCOCC2)ccc2c(=O)c(C(=O)O)cn(C3CC3)c12 (stereo not shown) [Example 126, 1-cyclopropyl-8-methoxy-7-(4-(4-morpholinylmethyl)-4,5,6,7-tetrahydro-1-benzothien-2-yl)-4-oxo-1,4-dihydro-3-quinolinecarboxylic acid]	0.5 µg/mL	16 µg/mL	1 µg/mL	0.004 µg/mL	0.5 µg/mL
COc1c(-c2cc3c(s2)CC(C)(C)CC3N)ccc2c(=O)c(C(=O)O)cn(C3CC3)c12.Cl (stereo not shown) [Example 238, 7-(4-amino-6,6-dimethyl-4,5,6,7-tetrahydro-1-benzothien-2-yl)-1-cyclopropyl-8-methoxy-4-oxo-1,4-dihydro-3-quinolinecarboxylic acid hydrochloride]	0.5 µg/mL	0.25 µg/mL	0.125 µg/mL	0.03 µg/mL	0.06 µg/mL
COc1c(-c2cc3c(s2)C(O)C(C)(C)CC3)ccc2c(=O)c(C(=O)O)cn(C3CC3)c12 (stereo not shown) [Example 241, 1-cyclopropyl-7-(7-hydroxy-6,6-dimethyl-4,5,6,7-tetrahydro-1-benzothien-2-yl)-8-methoxy-4-oxo-1,4-dihydro-3-quinolinecarboxylic acid]	0.25 µg/mL	1 µg/mL	0.25 µg/mL	0.015 µg/mL	1 µg/mL
Cl.NC1CCCc2cc(-c3nc4c(cc3F)c(=O)c(C(=O)O)cn4C3CC3)sc21 (stereo not shown) [Example 271, 7-(7-amino-4,5,6,7-tetrahydro-1-benzothien-2-yl)-1-cyclopropyl-6-fluoro-4-oxo-1,4-dihydro-1,8-naphthyridine-3-carboxylic acid hydrochloride]	0.015 µg/mL	≤ 0.004 µg/mL	≤ 0.004 µg/mL	≤ 0.004 µg/mL	≤ 0.004 µg/mL
O=C(O)c1cn(C2CC2)c2c(OC(F)F)c(-c3cc4c(s3)CCCC4O)ccc2c1=O (stereo not shown) [Example 99, 1-cyclopropyl-8-(difluoromethoxy)-7-(4-hydroxy-4,5,6,7-tetrahydro-1-benzothien-2-yl)-4-oxo-1,4-dihydro-3-quinolinecarboxylic acid]	0.125 µg/mL	0.25 µg/mL	0.015 µg/mL	0.015 µg/mL	0.06 µg/mL
Cl.NC1CCCc2cc(-c3ccc4c(=O)c(C(=O)O)cn(C5CC5)c4n3)sc21 (stereo not shown) [Example 282, 7-(7-amino-4,5,6,7-tetrahydro-1-benzothien-2-yl)-1-cyclopropyl-4-oxo-1,4-dihydro-1,8-naphthyridine-3-carboxylic acid hydrochloride]	0.03 µg/mL	0.015 µg/mL	0.03 µg/mL	0.008 µg/mL	0.015 µg/mL
Nc1c(F)c(-c2cc3c(s2)C(O)CCC3)c(F)c2c1c(=O)c(C(=O)O)cn2C1CC1 (stereo not shown) [Example 319, 5-amino-1-cyclopropyl-6,8-difluoro-7-(7-hydroxy-4,5,6,7-tetrahydro-1-benzothien-2-yl)-4-oxo-1,4-dihydroquinoline-3-carboxylic acid]	0.06 µg/mL	0.06 µg/mL	0.015 µg/mL	≤ 0.004 µg/mL	0.03 µg/mL
COc1c(-c2cc3c(s2)CCCC3N2CC(O)C2)ccc2c(=O)c(C(=O)O)cn(C3CC3)c12.Cl (stereo not shown) [Example 198, 1-cyclopropyl-7-(4-(3-hydroxy-1-azetidinyl)-4,5,6,7-tetrahydro-1-benzothien-2-yl)-8-methoxy-4-oxo-1,4-dihydro-3-guinolinecarboxvlic acid hydrochloride]	0.25 µg/mL	0.5 µg/mL	0.25 µg/mL	0.25 µg/mL	0.125 µg/mL
COc1c(-c2cc3c(s2)C(O)C2(CC3)CC2)ccc2c(=O)c(C(=O)O)cn(C3CC3)c12 (stereo not shown) [Example 267, 7-(7-hydroxy-6-spirocyclopropyl-4,5,6,7-tetrahydro-1-benzothien-2-yl)-1-cyclopropyl-8-methoxy-4-oxo-1,4-dihydroquinoline-3-carboxylic acid]	0.125 µg/mL	0.5 µg/mL	0.06 µg/mL	≤ 0.004 µg/mL	0.25 µg/mL
COc1c(-c2cc3c(s2)CCCC3CO)ccc2c(=O)c(C(=O)O)cn(C3CC3)c12 (stereo not shown) [Example 110, 1-cyclopropyl-7-(4-(hydroxymethyl)-4,5,6,7-tetrahydro-1-benzothien-2-yl)-8-methoxy-4-oxo-1,4-dihydro-3-quinolinecarboxylic acid]	0.06 µg/mL	0.25 µg/mL	0.015 µg/mL	0.004 µg/mL	0.06 µg/mL
COc1c(-c2cc3c(s2)CCCC3=NN2CCCC2)ccc2c(=O)c(C(=O)O)cn(C3CC3)c12 [Example 74, 1-cyclopropyl-8-methoxy-4-oxo-7-((4E/Z)-4-(1-pyrrolidinylimino)-4,5,6,7-tetrahydro-1-benzothien-2-yl)-1,4-dihydro-3-quinolinecarboxylic acid]	0.25 µg/mL	0.5 µg/mL	0.06 µg/mL	0.015 µg/mL	0.125 µg/mL

Next, values leading:

Antibacterial Activity (MIC's), B [1]	Antibacterial Activity (MIC's), D (Escherichia coli JUHL)	Antibacterial Activity (MIC's), E [2]	Antibacterial Activity (MIC's), A [3]	Antibacterial Activity (MIC's), F [4]	SMILES
2 µg/mL	8 µg/mL	1 µg/mL	0.06 µg/mL	0.5 µg/mL	COc1c(-c2cc3c(s2)CCC(=O)C3)ccc2c(=O)c(C(=O)O)cn(C3CC3)c12 [Example 53, 1-cyclopropyl-8-methoxy-4-oxo-7-(5-oxo-4,5,6,7-tetrahydro-1-benzothien-2-yl)-1,4-dihydro-3-quinolinecarboxylic acid]
0.25 µg/mL	2 µg/mL	0.5 µg/mL	0.03 µg/mL	0.5 µg/mL	CON=C1Cc2cc(-c3ccc4c(=O)c(C(=O)O)cn(C5CC5)c4c3OC)sc2C1 [Example 248, 1-cyclopropyl-8-methoxy-7-((5E/Z)-5-(methoxyimino)-5,6-dihydro-4H-cyclopenta[b]thien-2-yl)-4-oxo-1,4-dihydro-3-quinolinecarboxylic acid]
0.5 µg/mL	1 µg/mL	0.06 µg/mL	0.06 µg/mL	0.25 µg/mL	COc1c(-c2cc3c(s2)CC(NS(C)(=O)=O)C3)ccc2c(=O)c(C(=O)O)cn(C3CC3)c12 (stereo not shown) [Example 254, 1-cyclopropyl-8-methoxy-7-(5-((methylsulfonyl)amino)-5,6-dihydro-4H-cyclopenta[b]thien-2-yl)-4-oxo-1,4-dihydro-3-quinolinecarboxylic acid]
0.5 µg/mL	0.5 µg/mL	0.25 µg/mL	0.125 µg/mL	0.125 µg/mL	COc1c(-c2cc3c(s2)CCCC3N(C)C)ccc2c(=O)c(C(=O)O)cn(C3CC3)c12.Cl (stereo not shown) [Example 83, 1-cyclopropyl-7-(4-(dimethylamino)-4,5,6,7-tetrahydro-1-benzothien-2-yl)-8-methoxy-4-oxo-1,4-dihydro-3-quinolinecarboxylic acid hydrochloride]
0.25 µg/mL	2 µg/mL	0.25 µg/mL	0.03 µg/mL	0.125 µg/mL	CON=C1CCCc2sc(-c3ccc4c(=O)c(C(=O)O)cn(C5CC5)c4c3OC)cc21 [Example 64, 1-cyclopropyl-8-methoxy-7-((4E/Z)-4-(methoxyimino)-4,5,6,7-tetrahydro-1-benzothien-2-yl)-4-oxo-1,4-dihydro-3-quinolinecarboxylic acid]
0.5 µg/mL	0.25 µg/mL	0.06 µg/mL	0.125 µg/mL	0.25 µg/mL	COc1c(-c2cc3c(s2)C(N)CNC3)ccc2c(=O)c(C(=O)O)cn(C3CC3)c12 (stereo not shown) [Example 208, 7-(7-amino-4,5,6,7-tetrahydrothieno[3,2-c]pyridin-2-yl)-1-cyclopropyl-8-methoxy-4-oxo-1,4-dihydro-3-quinolinecarboxylic acid]
